# Source: patent US4988687A, “Cephalosporin derivatives, and antibacterial agents” (priority 1986, dated 1991)
# Read-outs that look alike come from different tables or passages of the source.
# Experiments:
# [1] = test system: Ps. aeruginosa IFO3445; assay: agar plate dilution method, MIC against Ps. aeruginosa IFO3445; type: cell-based; details: Pseudomonas aeruginosa, read-out: Minimum Inhibitory Concentration (MIC)
# Experimental: (§1) The in vitro antibacterial activities of the compounds of the present invention against various microorganisms, were measured by the following agar plate dilution method. One platinum loopfull of each test microorganism incubated overnight in Mueller Hinton broth, was inoculated to Mueller Hinton agar (inoculum size: 10^6 CFU/ml) Such culture media containing various antibiotics in various concentrations were prepared After incubation at 37° C. for 16 hours, the minimum inhibitory concentrations (MIC: μg/ml) were measured. As comparative compounds, cefotaxime, oeftazidime and the compounds disclosed in Example 2 of Japanese Unexamined Patent Publication No. 215690/1985 e.g. sodium 7-[2-(2-aminothiazol-4-yl)-2-ethoxyiminoacetamido]-3-(1-carboxylatemethylpyridinio-4-yl)thiomethyl-3-cephem-4-carboxylate (hereinafter referred to simply as "Reference Example A") were employed.
# [2] = test system: Ps. aeruginosa AK 109; assay: agar plate dilution method, MIC against Ps. aeruginosa AK 109; type: cell-based; details: Pseudomonas aeruginosa, read-out: Minimum Inhibitory Concentration (MIC)
# Experimental: as §1
# [3] = test system: P. vulgaris No. 33; assay: agar plate dilution method, MIC against P. vulgaris No. 33; type: cell-based; details: Proteus vulgaris; P. vulgaris No. 33 (lactamase-producing strain); 10^6 CFU/ml, 37° C., 16 hours; read-out: Minimum Inhibitory Concentration (MIC)
# Experimental: as §1
# [4] = test system: E. coli CSH2 (RK1); assay: agar plate dilution method, MIC against E. coli CSH2 (RK1); type: cell-based; details: Escherichia coli, 16 h, read-out: Minimum Inhibitory Concentration (MIC)
# Experimental: as §1
# [5] = test system: S. marcescens IAM 1184; assay: agar plate dilution method, MIC against S. marcescens IAM 1184; type: cell-based; details: Serratia marcescens, read-out: Minimum Inhibitory Concentration (MIC)
# Experimental: as §1
# [6] = test system: E. coli CSH(RE45); assay: agar plate dilution method, MIC against E. coli CSH(RE45); type: cell-based; details: Escherichia coli, 16 h, read-out: Minimum Inhibitory Concentration (MIC)
# Experimental: as §1
# [7] = test system: Ps. aeruginosa AKR17; assay: agar plate dilution method, MIC against Ps. aeruginosa AKR17; type: cell-based; details: Pseudomonas aeruginosa; Ps. aeruginosa AKR17; 10^6 CFU/ml, 37° C., 16 hours; read-out: Minimum Inhibitory Concentration (MIC)
# Experimental: as §1
# [8] = test system: M. luteus ATCC9341; assay: agar plate dilution method, MIC against M. luteus ATCC9341; type: cell-based; details: Micrococcus luteus, read-out: Minimum Inhibitory Concentration (MIC)
# Experimental: as §1
# [9] = test system: S. aureus 209P NIHJ-JC1; assay: agar plate dilution method, MIC against S. aureus 209P NIHJ-JC1; type: cell-based; details: Staphylococcus aureus, read-out: Minimum Inhibitory Concentration (MIC)
# Experimental: as §1
# [10] = test system: E. cloacae Nek 39; assay: agar plate dilution method, MIC against E. cloacae Nek 39; type: cell-based; details: Enterobacter cloacae, NEK39; E. cloacae Nek 39 (lactamase-producing strain); 10^6 CFU/ml, 37° C., 16 hours; read-out: Minimum Inhibitory Concentration (MIC)
# Experimental: as §1
# [11] = test system: E. cloacae 963; assay: agar plate dilution method, MIC against E. cloacae 963; type: cell-based; details: read-out: Minimum Inhibitory Concentration (MIC)
# Experimental: as §1
# [12] = test system: C. freundii GN346/16; assay: agar plate dilution method, MIC against C. freundii GN346/16; type: cell-based; details: Citrobacter freundii; C. freundii GN346/16; 10^6 CFU/ml, 37° C., 16 hours; read-out: Minimum Inhibitory Concentration (MIC)
# Experimental: as §1
# [13] = test system: C. freundii GN346; assay: agar plate dilution method, MIC against C. freundii GN346; type: cell-based; details: Citrobacter freundii; C. freundii GN346 (lactamase-producing strain); 10^6 CFU/ml, 37° C., 16 hours; read-out: Minimum Inhibitory Concentration (MIC)
# Experimental: as §1
# [14] = test system: S. marcescens No. 16-2; assay: agar plate dilution method, MIC against S. marcescens No. 16-2; type: cell-based; details: Serratia marcescens, NO.162, 16 h, read-out: Minimum Inhibitory Concentration (MIC)
# Experimental: as §1
# [15] = test system: P. vulgaris HX-19; assay: agar plate dilution method, MIC against P. vulgaris HX-19; type: cell-based; details: Proteus vulgaris, HX19, 16 h, read-out: Minimum Inhibitory Concentration (MIC)
# Experimental: as §1
# [16] = test system: A. calcoaceticus No. 4; assay: agar plate dilution method, MIC against A. calcoaceticus No. 4; type: cell-based; details: Acinetobacter calcoaceticus; A. calcoaceticus No. 4; 10^6 CFU/ml, 37° C., 16 hours; read-out: Minimum Inhibitory Concentration (MIC)
# Experimental: as §1
# [17] = test system: K. pneumoniae PCI-602; assay: agar plate dilution method, MIC against K. pneumoniae PCI-602; type: cell-based; details: Klebsiella pneumoniae, read-out: Minimum Inhibitory Concentration (MIC)
# Experimental: as §1
# [18] = test system: Ps. maltophilia GN 12873; assay: agar plate dilution method, MIC against Ps. maltophilia GN 12873; type: cell-based, Pseudomonas maltophilia; details: Stenotrophomonas maltophilia, GN12873; Ps. maltophilia GN 12873 (lactamase-producing strain); 10^6 CFU/ml, 37° C., 16 hours; read-out: Minimum Inhibitory Concentration (MIC)
# Experimental: as §1
# [19] = test system: M. morganii GN5407; assay: agar plate dilution method, MIC against M. morganii GN5407; type: cell-based; details: Morganella morganii; M. morganii GN5407 (lactamase-producing strain); 10^6 CFU/ml, 37° C., 16 hours; read-out: Minimum Inhibitory Concentration (MIC)
# Experimental: as §1
# [20] = test system: E. coli NIHJ JC2; assay: agar plate dilution method, MIC against E. coli NIHJ JC2; type: cell-based; details: Escherichia coli, read-out: Minimum Inhibitory Concentration (MIC)
# Experimental: as §1
# [21] = test system: Ps. cepacia 23; assay: agar plate dilution method, MIC against Ps. cepacia 23; type: cell-based, Pseudomonas cepacia; details: Burkholderia cepacia, 23, 16 h, read-out: Minimum Inhibitory Concentration (MIC)
# Experimental: as §1
# [22] = test system: K. oxytoca GN10650; assay: agar plate dilution method, MIC against K. oxytoca GN10650; type: cell-based; details: Klebsiella oxytoca; K. oxytoca GN10650 (lactamase-producing strain); 10^6 CFU/ml, 37° C., 16 hours; read-out: Minimum Inhibitory Concentration (MIC)
# Experimental: as §1
# [23] = test system: K. pneumoniae No. 42; assay: agar plate dilution method, MIC against K. pneumoniae No. 42; type: cell-based; details: Klebsiella pneumoniae; K. pneumoniae No. 42 (lactamase-producing strain); 10^6 CFU/ml, 37° C., 16 hours; read-out: Minimum Inhibitory Concentration (MIC)
# Experimental: as §1
# [24] = test system: S. epidermidis IAM12012; assay: agar plate dilution method, MIC against S. epidermidis IAM12012; type: cell-based; details: Staphylococcus epidermidis, read-out: Minimum Inhibitory Concentration (MIC)
# Experimental: as §1
# [25] = test system: E. coli GN5482; assay: agar plate dilution method, MIC against E. coli GN5482; type: cell-based; details: Escherichia coli; E. coli GN5482 (lactamase-producing strain); 10^6 CFU/ml, 37° C., 16 hours; read-out: Minimum Inhibitory Concentration (MIC)
# Experimental: as §1
# [26] = test system: S. aureus JS1; assay: agar plate dilution method, MIC against S. aureus JS1; type: cell-based; details: Staphylococcus aureus; S. aureus JS1 (methicilline resistant; lactamase-producing strain); 10^6 CFU/ml, 37° C., 16 hours; read-out: Minimum Inhibitory Concentration (MIC)
# Experimental: as §1
# [27] = test system: S. aureus BB5703; assay: agar plate dilution method, MIC against S. aureus BB5703; type: cell-based; details: Staphylococcus aureus, BB5703, 16 h, read-out: Minimum Inhibitory Concentration (MIC)
# Experimental: as §1
Compound,MIC [3] [µg/mL],MIC [4] [µg/mL],MIC [6] [µg/mL],MIC [7] [µg/mL],MIC [10] [µg/mL],MIC [12] [µg/mL],MIC [13] [µg/mL],MIC [14] [µg/mL],MIC [15] [ng/mL],MIC [16] [µg/mL],MIC [18] [µg/mL],MIC [19] [µg/mL],MIC [21] [µg/mL],MIC [22] [µg/mL],MIC [23] [µg/mL],MIC [25] [µg/mL],MIC [26] [µg/mL],MIC [27] [µg/mL],also measured
"Nc1nc(/C(=N/OCc2ccccc2)C(=O)NC2C(=O)N3C(C(=O)[O-])=C(CSc4cc[n+](CC(=O)O)cc4)CSC23)cs1 (stereo not drawn) [Example 2, monosodium 7-[2-(2-aminithiazol-4-yl)-2-benzyloxyiminoacetamide]-3-(1-caboxylatemethylpyridinio-4-yl)thiomethyl-3-cephem-4-carboxylate (syn-isomer)]",1.56,0.2,0.2,> 100,6.25,0.78,25,12.5,< 6,25,> 100,1.56,12.5,12.5,1.56,0.78,50,1.56,"MIC ([1]; Ps. aeruginosa IFO3445, 10^6 CFU/ml, 37° C., 16 hours): 25 µg/mL; MIC ([2]; AK109, Ps. aeruginosa AK 109, 10^6 CFU/ml, 37° C., 16 hours): 25 µg/mL; MIC ([5]; IAM1184, 16 h): 1.56 µg/mL; MIC ([8]; ATCC9341, 16 h): 0.025 µg/mL; MIC ([9]; S. aureus 209P NIHJ-JC1, 10^6 CFU/ml, Mueller Hinton agar, 37° C., 16 hours): 0.39 µg/mL; MIC ([11]; Enterobacter cloacae, 963, 16 h): 1.56 µg/mL; MIC ([17]; PCI602, K. pneumoniae PCI-602, 10^6 CFU/ml, 37° C., 16 hours): 0.0125 µg/mL; MIC ([20]; NIHJJC2, 16 h): 1.56 µg/mL; MIC ([24]; S. epidermidis IAM12012, 10^6 CFU/ml, 37° C., 16 hours): 0.2 µg/mL"
"CO/N=C(\C(=O)N[C@@H]1C(=O)N2C(C(=O)O)=C(COC(C)=O)CS[C@H]12)c1csc(N)n1 [Cefotaxime, cefotaxime, reference compound]",0.025,0.025,0.1,> 100,3.12,0.1,12.5,12.5,< 6,25,> 100,0.1,6.25,0.39,0.05,0.39,25,3.12,"MIC ([1]; IFO3445, 16 h): 12.5 µg/mL; MIC ([2]; AK109, 16 h): 12.5 µg/mL; MIC ([5]; IAM1184, S. marcescens IAM 1184, 10^6 CFU/ml, 37° C., 16 hours): 0.1 µg/mL; MIC ([8]; M. luteus ATCC9341, 10^6 CFU/ml, 37° C., 16 hours): 0.1 µg/mL; MIC ([9]; 16 h): 1.56 µg/mL; MIC ([11]; Enterobacter cloacae, E. cloacae 963, 10^6 CFU/ml, 37° C., 16 hours): 0.1 µg/mL; MIC ([17]; PCI602, 16 h): < 0.006 µg/mL; MIC ([20]; NIHJJC2, E. coli NIHJ JC2, 10^6 CFU/ml, 37° C., 16 hours): 0.05 µg/mL; MIC ([24]; IAM12012, 16 h): 1.56 µg/mL"
